Earlier results, collected in US5200396A, “Method of treating neurodegenerative disorders using epidermal growth factor” (Zambon Group S.p.A., priority 1990, dated 1993).

System: rats with lesion of the nigrostriatal pathway
Conditions: lesion of the nigrostriatal pathway model; Brain Research, 459, 398, (1988)

NGF: growth factor acting as trophic factor towards some neuronal types
efficacy in changing the rotational behaviour of the animal: did not show, in practice, any efficacy
